Data as given in patent publication US10682362B2, “Treatments and diagnostics for cancers” (Wayne State University, priority 2015, dated 2020).
pIC50: −log10 of the molar value. Where two headings read alike, the source gives them in different places. Each block holds one compound with its values, some of them ahead of it. Where a SMILES comes first, the peptide text is derived from it. The star is where a group is joined. Cbz = O=C(OCc1ccccc1)*

What was measured:
metastatic CRPC [1] = details: phase III clinical trials; versus 10.9 months placebo; cited from earlier work
AR-V7 protein [2] = details: 22Rv1 cells, 20 μM Gal; 40 μM calpeptin or PD 66 h; 50 μM ALLM or pan-caspase inhibitor up to 72 h
Source text: Western blotting with anti-N20/AR antibody to examine levels of AR and AR-V7 proteins in various prostate cancer cell lines. […] This was followed by Western blotting with specific AR-V7 antibody, with Actin as a loading control.
Western blotting. (a, b) AR-V7 and AR protein levels determined by AR-V7 specific antibody and N20 antibody, respectively. (c) PARP/p89 is a caspase-3 cleavage fragment while PARP/p65 is a calpain cleavage product. (d) Caspase-3 cleavage fragment of Spectrin α2/p120, and a 150 fragment by either caspase-3 or calpain cleavage. (e) Autolysis of calpain small subunit (Cal Sm) to p28 fragment. (f) Calpain cleavage fragment of Calpastatin/p70. […] Caspase-3 activity assay.
In C, (a) Cell lysates were derivatized with 2,4-dinitrophenylhydrazine (DNPH), followed by Western blotting to determine the levels of oxidized proteins (Oxi-P). Actin was used a load control (b). AR-V7 levels were determined by AR-V7 specific antibody (c). PARP/p89 is caspase-3 cleavage fragment while PARP/p65 is calpain cleavage product (d). (e) Autolysis of calpain small subunit (Cal Sm) to p28 fragment. (f) Actin, loading control.

AR-V7 protein [3] = assay: Western blotting of AR-V7 in nuclear and cytosolic fractions of 22Rv1 cells; assay type: cell-based; details: for rescue of Gal-induced nuclear AR-V7 loss: androgen-starved 22Rv1 cells, 20 μM Gal plus 40 μM calpeptin or 20 μM Z-VAD
Source text: Nuclear fractions were isolated and separated by Western blotting to determine AR-V7 levels. Actin was used as a loading control.

DUBs = assay: DUB activity in 22Rv1 cells; assay type: cell-based; details: 20 μM Gal
Method: (§1) FIGS. 11A-11D. […] Actin was used a load control (b). […] (f) Actin, loading control.
(§2) Sustained DUBs inhibition was detected for up to 48 h (FIG. 11A). […] AR-V7 protein level remained subtle changes up to 56 h and decreased after 64-68 h, and completely depleted after 72 h (FIG. 11C, c). […] Consistently, caspase-3-specific cleavage fragments, 89 kD fragment of PARP (PARP/p89) were also detected between 48 and 72 h (FIG. 11C, d). Calpain activation is associated with self-autolysis of its small subunit. […] This finding has important clinical significance.

caspase-3 = assay: Caspase-3 activity assay in 22Rv1 cells; assay type: cell-based; details: 20 μM Gal
purified 26S proteasome = purified 26S proteasome (Homo sapiens, UniProt P28072+P28074+Q99436); assay: proteasome activities of purified 26S proteasome; assay type: biochemical; details: 15 min
Method: (§3) FIGS. 10A-10E. […] Purified 20S proteasome was used a control; BG, background (10D).
(§4) Then deubiquitinase (DUBs) activity associated with the 19S proteasome was determined by using the purified 26S proteasome.

22Rv1 cells [4] = assay: cell proliferation by MTT in 22Rv1 cells; assay type: cell-based; details: Gal alone, 24 h
proteasome [5] = target: T1, proteasome (Homo sapiens, UniProt P28072+P28074+Q99436); assay: cellular proteasomal CT-like, PGPH-like and T-like activities in 22Rv1 cells; assay type: cell-based; set-up: endogenous in cells; host or cells: 22Rv1; details: for inhibition at 20 µM: 22Rv1, 22Rv1 cells, 20 μM Gal
T1 sequence (P28074 60-263): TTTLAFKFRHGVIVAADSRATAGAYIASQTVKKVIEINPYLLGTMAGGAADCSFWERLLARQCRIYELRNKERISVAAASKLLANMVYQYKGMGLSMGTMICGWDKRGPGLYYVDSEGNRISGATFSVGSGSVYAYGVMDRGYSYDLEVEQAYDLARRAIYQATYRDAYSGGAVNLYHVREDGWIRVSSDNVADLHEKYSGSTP
T1 sequence (P28072 1-239): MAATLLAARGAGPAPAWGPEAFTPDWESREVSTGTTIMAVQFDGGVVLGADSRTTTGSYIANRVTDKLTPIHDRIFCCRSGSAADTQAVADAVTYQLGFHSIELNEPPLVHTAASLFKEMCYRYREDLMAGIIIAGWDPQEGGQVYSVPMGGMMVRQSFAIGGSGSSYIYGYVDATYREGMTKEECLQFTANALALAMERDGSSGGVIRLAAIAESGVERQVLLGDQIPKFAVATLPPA
T1 sequence (Q99436 44-277): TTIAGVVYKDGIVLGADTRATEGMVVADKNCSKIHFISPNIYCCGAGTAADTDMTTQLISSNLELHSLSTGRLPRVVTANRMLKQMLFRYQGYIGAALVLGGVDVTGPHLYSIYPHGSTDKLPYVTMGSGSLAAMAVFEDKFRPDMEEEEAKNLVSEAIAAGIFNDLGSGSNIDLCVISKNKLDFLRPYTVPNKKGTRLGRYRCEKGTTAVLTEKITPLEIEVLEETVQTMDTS
Source text: as §1

22Rv1 cells [6] = assay: morphological changes and crystal violet staining of 22Rv1 cells; assay type: cell-based; details: bortezomib 2.5 or 5 nM, Gal 20 μM, 24 h and 48 h
Source text: In 12C, cells were fixed with formalin, and then stained with violet overnight.

[7] = tested on: CRPC with C-terminal AR loss; details: Phase 2 ARMOR2; cited from earlier work
[8] = tested on: oxidized proteins (Oxi-P); assay: oxidized proteins (DNPH derivatization, Western blotting) in 22Rv1 cells; assay type: cell-based; details: 20 μM Gal
Method: as §1, §2

[9] = tested on: full length AR (AR-FL) protein; assay: Western blotting of full length AR (anti-AR N20) in 22Rv1 cells; assay type: cell-based
proteasome [10] = target: T1, proteasome; assay: cellular proteasomal activities in VCaP cells; assay type: cell-based; set-up: endogenous in cells; details: 5-20 μM Gal, 72 h
Source text: Therefore, Gal-induced proteasome inhibition occurs prior to activation of calpain/caspases and loss of AR-V7 protein (FIGS. 4 vs. 2).

purified 20S proteasome = purified 20S proteasome (Homo sapiens, UniProt P28072+P28074+Q99436); assay: proteasome activities of purified 20S proteasome; assay type: biochemical; details: 15 min
Method: as §3, §4

[11] = tested on: 19S proteasome-associated DUB; assay: DUBs activity of purified 26S proteasome (Ub-AMC substrate); assay type: biochemical
Method: as §3, §4

proteasome [12] = assay: proteasome CT-like activity in protein extract of 22Rv1 cells; assay type: biochemical; details: high concentrations (50 or 100 μM)
calpain [13] = assay: calpain activation by cleavage fragments (Western blotting) in 22Rv1 cells; assay type: cell-based; details: 20 μM Gal, same time points as p28 (48 to 72 h)
[14] = tested on: BTZ-resistant MM 8826 cells; assay: cell proliferation by MTS in BTZ-resistant MM cells; assay type: cell-based; details: Gal alone at 10 or 20 μM, 24 h
Method: FIGS. 13A-C. […] Cell proliferation was determined by MTS. […] Cell death was determined by detection of PARP cleavage. […] Actin was used as loading control.
8826-7BR is a multiple myeloma cell line developed resistance to bortezomib. […] This finding has high translational potential to clinics.

proteasome [15] = details: cited from earlier work
AR-V7 = details: 5 μM of MG132; cited from earlier work
calpain [16] = details: cited from earlier work
metastatic CRPC [17] = details: cited from earlier work

Compound: CC(=O)O[C@H]1CC[C@@]2(C)C(=CC[C@@H]3[C@@H]2CC[C@]2(C)C(c4cccnc4)=CC[C@@H]32)C1 [abiraterone acetate]
median survival (metastatic CRPC [1]): 14.8 months

Compound: CCCC[C@@H](C=O)NC(=O)[C@H](CC(C)C)NC(=O)OCc1ccccc1 [calpeptin, Z-Leu-Nle-CHO]
rescue of Gal-induced AR-V7 loss by inhibitor (AR-V7 protein [2]): rescue AR-V7 loss partially
block of Gal-induced nuclear AR-V7 depletion (AR-V7 protein [3]; 22Rv1 cells, 20 μM Gal plus 40 μM calpeptin, 56 h and 72 h): could be blocked
rescue of Gal-induced nuclear AR-V7 loss (AR-V7 protein [3]): partially rescued AR-V7 loss by Gal

Compound: CSCC[C@@H](C=O)NC(=O)[C@H](CC(C)C)NC(=O)[C@H](CC(C)C)NC(C)=O [ALLM, N-acetyl-L-leucyl-L-leucyl-L-methioninal] (Ac-Leu-Leu-Met-aldehyde)
rescue of Gal-induced AR-V7 loss by inhibitor (AR-V7 protein [2]): rescue AR-V7 loss partially

inhibition at 20 µM (proteasome [5]; after 64 h): > 50%
inhibition at 20 µM (proteasome [5]; at 48 h): 30%
inhibition at 20 µM (proteasome [5]; between 2-24 h): 10%
proteasomal CT-like activity (proteasome [5]; 22Rv1 cells, 5-20 μM Gal, 24 h): dose-dependent decrease
proteasomal PGPH-like activity (proteasome [5]; 22Rv1 cells, 5-20 μM Gal, 24 h): dose-dependent decrease
proteasomal trypsin (T)-like activity (proteasome [5]; 22Rv1 cells, 5-20 μM Gal, 24 h): but not trypsin (T)-like activities
three proteasomal activities (proteasome [10]): dose-dependent inhibition
Compound: C[C@]12CC[C@H](O)CC1=CC[C@@H]1[C@@H]2CC[C@]2(C)C(n3cnc4ccccc43)=CC[C@@H]12 [Gal, (3S,8R,9S,10R,13S,14S)-17-(benzimidazol-1-yl)-10,13-dimethyl-2,3,4,7,8,9,11,12,14,15-decahydro-1H-cyclopenta[a]phenanthren-3-ol]
earliest time of DUBs inhibition (DUBs): ≤ 2 h
sustained DUBs inhibition detected up to (DUBs): up to 48 h
time after which caspase-3 activity increased (caspase-3): ≥ 24 h
time at which caspase-3 activity reached the highest (caspase-3): 48 h
caspase-3 activation (caspase-3; after 48 h): 5 fold
three proteasomal activities (CT, PGPH and T-like) (purified 26S proteasome): unable to block all the three proteasomal activities
cell proliferation (MTT) (22Rv1 cells [4]): did not inhibit cell proliferation
proteasomal CT-like activities, time course (proteasome [5]; 22Rv1 cells, 20 μM Gal up to 72 h): inhibited in a time-dependent fashion, but later than DUBs inhibition
all three proteasomal activities (proteasome [5]; 22Rv1 cells, 5-20 μM Gal, 48 h): decreased in a Gal dose-dependent fashion
morphological changes / cell death (22Rv1 cells [6]): did not cause apparent morphological changes
response of Abi- and Enz refractory CRPC patients with C-terminal AR loss [7]: remain responsive
sustained accumulation of oxidized proteins detected up to [8]: up to 72 h
time before which oxidized proteins accumulated [8]: < 2 h
time after which full length AR (AR-FL) protein decreased ([9]; 20 μM Gal for up to 72 h): ≥ 48 h
AR-FL protein expression in cytosolic and nuclear fractions ([9]; 20 μM Gal, anti-AR N20 antibody): a decrease in both cytosolic and nuclear AR-FL protein expression
three proteasomal activities (CT, PGPH and T-like) (purified 20S proteasome): unable to block all the three proteasomal activities
DUBs activity of purified 26S proteasome ([11]; Gal 20 μM, 15 min): suppressed
DUBs activity of purified 26S proteasome ([11]; Gal at a low dose (10 μM)): could efficiently inhibit DUBs activity
CT-like activity of the proteasome (proteasome [12]): could inhibit the CT-like activity
calpain cleavage product Calpastatin/p70 (calpain [13]): detected at the same time points
sensitivity of BTZ-resistant MM cells (MTS) [14]: sensitive to Gal treatment alone

Compound: CC(C)C[C@@H](C=O)NC(=O)[C@H](CC(C)C)NC(=O)[C@H](CC(C)C)NC(=O)OCc1ccccc1 [MG132] (Cbz-Leu-Leu-Leu-aldehyde)
pIC50 (proteasome [15]): 7.00
inhibition of Gal-induced AR-V7 degradation (AR-V7): could be inhibited
pIC50 (calpain [16]): 5.92

Compound: Z-VAD
rescue of Gal-induced nuclear AR-V7 loss (AR-V7 protein [3]): able to block the Gal-induced AR-V7 depletion

proteasomal CT-like activity (proteasome [5]; 22Rv1 cells, BTZ alone, 48 h): caused proteasomal CT-like inhibition
proteasomal chymotrypsin (CT)-like activity (proteasome [5]; 22Rv1 cells, BTZ alone, 72 h): dose-dependent inhibition
Compound: CC(C)C[C@H](NC(=O)[C@H](Cc1ccccc1)NC(=O)c1cnccn1)B(O)O [BTZ]
morphological changes / cell death (22Rv1 cells [6]): did not cause apparent morphological changes

Compound: CNC(=O)c1ccc(N2C(=S)N(c3ccc(C#N)c(C(F)(F)F)c3)C(=O)C2(C)C)cc1F [Enzalutamide]
patients with PSA level decreased more than 50% (metastatic CRPC [17]; chemo-naive patients): 40/65
patients with PSA level decreased more than 50% (metastatic CRPC [17]; chemotherapy-treated patients): 38/75
lived longer than those taking placebo (metastatic CRPC [17]; interim analysis): approximately 5 months

Compound: O=C(O)/C(S)=C/c1ccc(I)cc1 [PD150606]
rescue of Gal-induced AR-V7 loss by inhibitor (AR-V7 protein [2]): rescue AR-V7 loss partially
